In ChEMBL document CHEMBL1139560, “Synthesis of linked berberine dimers and their remarkably enhanced DNA-binding affinities” (Bioorg Med Chem Lett, 2005) one finds Ka and RA data, which are given here for five compounds.

Holding throughout (type): nucleic-acid assay
Assay [1] relates to Nucleic Acid. Nature of the assay: In vitro association constant for binding at d(AAGAATTCTT)2 done in 50 mM Tris-HCL in pH 6.35 at room temperature.
Assay [2] concerns Nucleic Acid. Nature of the assay: In vitro association constant for binding at d(TA AGAATTCTTA)2 done in 50 mM Tris-HCL in pH 6.35 at room temperature.
Assay [3] concerns Nucleic Acid. Nature of the assay: In vitro relative affinity for binding to d(AAGAATTCTT)2.
Assay [4] relates to Nucleic Acid. Nature of the assay: In vitro relative affinity for binding to d(TA AGAATTCTTA)2.

In the case of `COc1ccc2cc3[n+](cc2c1OCCCCOc1c(OC)ccc2cc4[n+](cc12)CCc1cc2c(cc1-4)OCO2)CCc1cc2c(cc1-3)OCO2`, the results for the Ka in the assay with Nucleic Acid [1] and in the assay on Nucleic Acid [2] were 87800 and 349000, respectively. Besides, the RA with Nucleic Acid [3] came out at 7.1; in the assay with Nucleic Acid [4], 11.9.

In the case of `COc1ccc2cc3[n+](cc2c1OCCCOc1c(OC)ccc2cc4[n+](cc12)CCc1cc2c(cc1-4)OCO2)CCc1cc2c(cc1-3)OCO2`, the Ka is 246000 with Nucleic Acid [1] and 2.76e+06 in the assay with Nucleic Acid [2]. Also, the RA in the assay on Nucleic Acid [3] was 19.8; in the assay with Nucleic Acid [4], 94.2.

As for `COc1ccc2cc3[n+](cc2c1OCCCCCOc1c(OC)ccc2cc4[n+](cc12)CCc1cc2c(cc1-4)OCO2)CCc1cc2c(cc1-3)OCO2`, the Ka was determined as 57700 in the assay on Nucleic Acid [1] and 321000 with Nucleic Acid [2]. The RA with Nucleic Acid [3] was found to be 4.7; in the assay with Nucleic Acid [4], 11.

On to `COc1ccc2cc3[n+](cc2c1OC)CCc1cc2c(cc1-3)OCO2`, for which the Ka in the assay on Nucleic Acid [1] was 12400; in the assay with Nucleic Acid [2], 29300. Moreover, the RA in the assay with Nucleic Acid [3] and in the assay on Nucleic Acid [4] was 1 in each case.

Take `COc1ccc2cc3[n+](cc2c1OCCCCCCOc1c(OC)ccc2cc4[n+](cc12)CCc1cc2c(cc1-4)OCO2)CCc1cc2c(cc1-3)OCO2`: the figures for the Ka in the assay on Nucleic Acid [1] and with Nucleic Acid [2] were 34200 and 248000, respectively. For the same compound, the RA in the assay on Nucleic Acid [3] came to 2.8; in the assay on Nucleic Acid [4], 8.5.
